The test has as its system PDC KRAS tumor spheroids with HUVEC/MSC, viability. In words: Anticancer human tumor 349418-098-R-PDC patient-derived lung adenocarcinoma cell line growth inhibition [KRAS2]. Conditions: for viability, T/C: stronger effect = lower value. An outline of the steps:
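Combination screen of spheroid viability in tumor-cell co-cultures with endothelial (HUVEC) and mesenchymal stem cell stroma. Each agent was tested in half-log dilutions, topping at clinical Cmax or at 10 microM without a known Cmax.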

Where [1] appears, read: curve of first compound, second compound 0.1 µM.
[2] abbreviates: curve of first compound, second compound 0.316 µM.
[3] abbreviates: curve of first compound, second compound 1 µM.
Where [4] appears, read: curve of first compound, second compound 3.16 µM.
The mark [5] stands for this setting: curve of first compound, second compound 10 µM.
Where [6] appears, read: second compound 0.1 µM, first compound 0.01 µM.
The mark [7] stands for this setting: second compound 0.1 µM, first compound 0.0316 µM.
The mark [8] stands for this setting: second compound 0.1 µM, first compound 0.1 µM.
[9] abbreviates: second compound 0.1 µM, first compound 0.316 µM.
Setting [10] is: second compound 0.1 µM, first compound 1 µM.
The mark [11] stands for this setting: second compound 0.1 µM, first compound 3.16 µM.
Where [12] appears, read: second compound 0.316 µM, first compound 0.01 µM.
The mark [13] stands for this setting: second compound 0.316 µM, first compound 0.0316 µM.
Where [14] appears, read: second compound 0.316 µM, first compound 0.1 µM.
The mark [15] stands for this setting: second compound 0.316 µM, first compound 0.316 µM.
Setting [16] is: second compound 0.316 µM, first compound 1 µM.
[17] abbreviates: second compound 0.316 µM, first compound 3.16 µM.
The mark [18] stands for this setting: second compound 1 µM, first compound 0.01 µM.
[19] abbreviates: second compound 1 µM, first compound 0.0316 µM.
Where [20] appears, read: second compound 1 µM, first compound 0.1 µM.
[21] abbreviates: second compound 1 µM, first compound 0.316 µM.
Where [22] appears, read: second compound 1 µM, first compound 1 µM.
Setting [23] is: second compound 1 µM, first compound 3.16 µM.
[24] abbreviates: second compound 3.16 µM, first compound 0.01 µM.
Setting [25] is: second compound 3.16 µM, first compound 0.0316 µM.
The mark [26] stands for this setting: second compound 3.16 µM, first compound 0.1 µM.
Where [27] appears, read: second compound 3.16 µM, first compound 0.316 µM.
Where [28] appears, read: second compound 3.16 µM, first compound 1 µM.
Where [29] appears, read: second compound 3.16 µM, first compound 3.16 µM.
The mark [30] stands for this setting: second compound 10 µM, first compound 0.01 µM.
Setting [31] is: second compound 10 µM, first compound 0.0316 µM.
[32] abbreviates: second compound 10 µM, first compound 0.1 µM.
[33] abbreviates: second compound 10 µM, first compound 0.316 µM.
[34] abbreviates: second compound 10 µM, first compound 1 µM.
The mark [35] stands for this setting: second compound 10 µM, first compound 3.16 µM.
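Also: spheroids exposed to compounds for seven days before readout.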

The term viability, T/C denotes the ratio of treated to control. What is called IC50 is the point on the concentration scale where inhibition reaches its midpoint. `Cn1ncnc1[C@H]1c2n[nH]c(=O)c3cc(F)cc(c23)N[C@@H]1c1ccc(F)cc1`: the viability, T/C (compound 0.000316 µM) was 104% [middle of 5 runs]; the viability, T/C (compound 0.001 µM) is 96.9% [middle of 5 runs]; the viability, T/C (compound 0.00316 µM) was 96.4% [middle of 5 runs]; the viability, T/C (compound 0.01 µM) is 94.2% [middle of 5 runs]; the viability, T/C (compound 0.0316 µM) is 86.2% [middle of 5 runs]; the viability, T/C (compound 0.1 µM) is 78.7% [middle of 5 runs]. Besides, where the note is “curve of compound”, the IC50 is greater than 100 nM.

Regarding `CC1COCCN1c1cc(-c2ccnn2C)c2ccnc(-c3ccn[nH]3)c2n1` (stereo not drawn) + CNCc1ccccc1-c1csc(C(C)Nc2nc(C)nc3cc(OC)c(OC)cc23)c1, the half-maximal inhibitory concentration (IC50) under setting [1] was 25 nM; the IC50 under setting [2] worked out at 29.9 nM; the concentration for half-maximal inhibition (IC50) under setting [3] came out at 18.5 nM; the IC50 under setting [4] is less than 10 nM; the IC50 under setting [5] is less than 10 nM. Besides, the viability, T/C reads like this: under setting [6], 114%; under setting [7], 33.4%; under setting [8], 10.6%; under setting [9], 7.11%; under setting [10], 5.04%; under setting [11], 3.83%. Besides, the viability, T/C is 107% under setting [12]; 47.1% under setting [13]; 11.1% under setting [14]; 5.41% under setting [15]; 4.13% under setting [16]; 3.71% under setting [17]. In addition, the viability, T/C is, setting by setting: under setting [18], 92.1%; under setting [19], 13.4%; under setting [20], 3.84%; under setting [21], 4.41%; under setting [22], 3.23%; under setting [23], 2.84%. The viability, T/C is 0.09% under setting [24]; 0.21% under setting [25]; 0.12% under setting [26]; 0.03% under setting [27]; 0.04% under setting [28]; 0.13% under setting [29]. In addition, the viability, T/C under setting [30] was 0.08%; the viability, T/C under setting [31] is 0.07%; the viability, T/C under setting [32] was 0.07%; the viability, T/C under setting [33] is 0.07%; the viability, T/C under setting [34] was 0.08%; the viability, T/C under setting [35] is 0.13%.

On to `CC1(C)CCC(CN2CCN(c3ccc(C(=O)NS(=O)(=O)c4ccc(NCC5CCOCC5)c([N+](=O)[O-])c4)c(Oc4cnc5[nH]ccc5c4)c3)CC2)=C(c2ccc(Cl)cc2)C1` + C=CC(=O)N1CCN(c2nc(=O)n(-c3c(C)ccnc3C(C)C)c3nc(-c4c(O)cccc4F)c(F)cc23)C(C)C1, for which the IC50 is, setting by setting: under setting [1], 1740 nM; under setting [2], 1760 nM; under setting [3], 1160 nM; under setting [4], 538 nM; under setting [5], less than 31.6 nM. In addition, the viability, T/C under setting [7] is 99.6%; the viability, T/C under setting [8] is 91.4%; the viability, T/C under setting [9] was 91.7%; the viability, T/C under setting [10] is 85.1%; the viability, T/C under setting [11] is 12.4%; the viability, T/C (second compound 0.1 µM, first compound 10 µM) was 3.05%. The viability, T/C was 92.5% under setting [13]; 92.2% under setting [14]; 82.6% under setting [15]; 78.7% under setting [16]; 20.4% under setting [17]; 3.58% (second compound 0.316 µM, first compound 10 µM). Also, the viability, T/C runs as follows: under setting [19], 78.4%; under setting [20], 80.5%; under setting [21], 75.4%; under setting [22], 55.6%; under setting [23], 12.9%; (second compound 1 µM, first compound 10 µM) 2.8%. The viability, T/C is 59.6% under setting [25]; 58.2% under setting [26]; 52.6% under setting [27]; 44.2% under setting [28]; 13.1% under setting [29]; 3.37% (second compound 3.16 µM, first compound 10 µM). The viability, T/C runs as follows: under setting [31], 32.7%; under setting [32], 33.7%; under setting [33], 31.9%; under setting [34], 32.5%; under setting [35], 6.8%; (second compound 10 µM, first compound 10 µM) 5.41%.

`COc1cc2nccc(Oc3ccc(NC(=O)C4(C(=O)Nc5ccc(F)cc5)CC4)cc3)c2cc1OC`: the viability, T/C runs as follows: (compound 0.0316 µM) 102% [middle of 5 runs]; (compound 0.1 µM) 98.8% [middle of 5 runs]; (compound 0.316 µM) 94.4% [middle of 5 runs]; (compound 3.16 µM) 14.4% [middle of 5 runs]. Further, the IC50 (curve of compound) is 1.76 µM [middle of 5 runs].

As to `CCN1CCN(Cc2ccc(Nc3ncc(F)c(-c4cc(F)c5nc(C)n(C(C)C)c5c4)n3)nc2)CC1` + CC1OCC2(CCN(c3cnc(Sc4ccnc(N)c4Cl)c(N)n3)CC2)C1N, the IC50 is, setting by setting: under setting [1], 5.38 nM; under setting [2], 3.38 nM; under setting [3], 7.27 nM; under setting [4], 7.9 nM; under setting [5], 6.16 nM. Also, the viability, T/C (second compound 0.1 µM, first compound 0.00316 µM) was 66.4%; the viability, T/C under setting [6] is 28.3%; the viability, T/C under setting [7] was 21.4%; the viability, T/C under setting [8] was 14.6%; the viability, T/C under setting [9] is 13.6%; the viability, T/C under setting [10] is 4.93%. Besides, the viability, T/C reads like this: (second compound 0.316 µM, first compound 0.00316 µM) 50.9%; under setting [12], 37.3%; under setting [13], 18.1%; under setting [14], 23.4%; under setting [15], 10.2%; under setting [16], 6.35%. Moreover, the viability, T/C reads like this: (second compound 1 µM, first compound 0.00316 µM) 70.2%; under setting [18], 43.6%; under setting [19], 21.1%; under setting [20], 16.4%; under setting [21], 10.7%; under setting [22], 3.95%. The viability, T/C was 61.6% (second compound 3.16 µM, first compound 0.00316 µM); 49.8% under setting [24]; 23.7% under setting [25]; 18.1% under setting [26]; 10.1% under setting [27]; 3.58% under setting [28]. For the same molecule, the viability, T/C was 68.6% (second compound 10 µM, first compound 0.00316 µM); 36.7% under setting [30]; 18.2% under setting [31]; 15.1% under setting [32]; 9.7% under setting [33]; 3.29% under setting [34].

On to `CCNC(=O)CC1N=C(c2ccc(Cl)cc2)c2cc(OC)ccc2-n2c(C)nnc21` (stereo not drawn), for which the viability, T/C is, setting by setting: (compound 0.1 µM) 57.3% [middle of 5 runs]; (compound 0.316 µM) 30.4% [middle of 5 runs]; (compound 1 µM) 8.84% [middle of 5 runs]; (compound 3.16 µM) 2.06% [middle of 5 runs]; (compound 10 µM) 1.07% [middle of 5 runs]. Further, the IC50 (curve of compound) was 138 nM [middle of 5 runs].
